Data taken from paper PMC12028158, “Synthesis and In Vitro Evaluation of the Anticancer Effect of Novel Phosphonium Vindoline Derivatives” (International Journal of Molecular Sciences, 2025).

Assays:
Format in all cases: cell-based
[1] = system: CCRF-CEM; test: NCI60 five-dose screen; details: Homo sapiens, Leukemia, read-out: GI50
[2] = system: SW-620; test: NCI60 five-dose screen; details: Homo sapiens; SW-620, Colon Cancer; read-out: GI50
[3] = system: ACHN; test: NCI60 five-dose screen; details: Homo sapiens, Renal Cancer, read-out: GI50
[4] = system: HOP-62; test: NCI60 five-dose screen; details: Homo sapiens; HOP-62, Non-small Cell Lung Cancer; read-out: GI50
[5] = system: HS 578T; test: NCI60 one-dose screen; details: Homo sapiens; HS 578T, 10 μM, one-dose; read-out: Growth percent
[6] = system: OVCAR-4; test: NCI60 five-dose screen; details: Homo sapiens; OVCAR-4, Ovarian Cancer; read-out: GI50
[7] = system: A498; test: NCI60 five-dose screen; details: Homo sapiens; A498, Renal Cancer; read-out: GI50
[8] = system: MALME-3M; test: NCI60 five-dose screen; details: Homo sapiens; MALME-3M, Melanoma; read-out: GI50
[9] = system: MDA-MB-435; test: NCI60 five-dose screen; details: Homo sapiens; MDA-MB-435, Melanoma; read-out: GI50
[10] = system: EKVX; test: NCI60 one-dose screen; details: Homo sapiens, 10 μM, one-dose, read-out: Growth percent
[11] = system: HOP-92; test: NCI60 five-dose screen; details: Homo sapiens; HOP-92, Non-small Cell Lung Cancer; read-out: GI50
[12] = system: SF-539; test: NCI60 one-dose screen; details: Homo sapiens; SF-539, 10 μM, one-dose; read-out: Growth percent
[13] = system: NCI-H460; test: NCI60 one-dose screen; details: Homo sapiens; NCI-H460, 10 μM, one-dose; read-out: Growth percent
[14] = system: T-47D; test: NCI60 five-dose screen; details: Homo sapiens, T47D; T-47D, Breast Cancer; read-out: GI50
[15] = system: IGROV1; test: NCI60 one-dose screen; details: Homo sapiens, IGROV-1; IGROV1, 10 μM, one-dose; read-out: Growth percent
[16] = system: IGROV1; test: NCI60 five-dose screen; details: Homo sapiens, IGROV-1; IGROV1, Ovarian Cancer; read-out: GI50
[17] = system: SF-295; test: NCI60 five-dose screen; details: Homo sapiens; SF-295, CNS Cancer; read-out: GI50
[18] = system: OVCAR-3; test: NCI60 five-dose screen; details: Homo sapiens; OVCAR-3, Ovarian Cancer; read-out: GI50
[19] = system: ACHN; test: NCI60 one-dose screen; details: Homo sapiens, 10 μM, one-dose, read-out: Growth percent
[20] = system: DU-145; test: NCI60 one-dose screen; details: Homo sapiens; DU-145, 10 μM, one-dose; read-out: Growth percent
[21] = system: COLO 205; test: NCI60 five-dose screen; details: Homo sapiens, COLO 205, COLO 205, Colon Cancer; read-out: GI50
[22] = system: 60 human tumor cell lines (NCI60); test: NCI60 one-dose screen, overall mean; details: Homo sapiens; mean over 60 cell lines, 10 μM, one-dose; read-out: Mean growth percent
[23] = system: MDA-MB-435; test: NCI60 one-dose screen; details: Homo sapiens; MDA-MB-435, 10 μM, one-dose; read-out: Growth percent
[24] = system: SF-268; test: NCI60 five-dose screen; details: Homo sapiens; SF-268, CNS Cancer; read-out: GI50
[25] = system: A549/ATCC; test: NCI60 five-dose screen; details: Homo sapiens; A549/ATCC, Non-small Cell Lung Cancer; read-out: GI50
[26] = system: Breast Cancer panel; test: NCI60 five-dose screen, panel mean; details: Homo sapiens; mean over Breast Cancer panel; read-out: GI50 Mean
[27] = system: HT29; test: NCI60 one-dose screen; details: Homo sapiens, HT-29; HT29, 10 μM, one-dose; read-out: Growth percent
[28] = system: NCI-H23; test: NCI60 one-dose screen; details: Homo sapiens; NCI-H23, 10 μM, one-dose; read-out: Growth percent
[29] = system: COLO 205; test: NCI60 one-dose screen; details: Homo sapiens; COLO 205, 10 μM, one-dose; read-out: Growth percent
[30] = system: U251; test: NCI60 five-dose screen; details: Homo sapiens, U-251, U251, CNS Cancer; read-out: GI50
[31] = system: SN12C; test: NCI60 five-dose screen; details: Homo sapiens, Renal Cancer, read-out: GI50
[32] = system: TK-10; test: NCI60 five-dose screen; details: Homo sapiens; TK-10, Renal Cancer; read-out: GI50
[33] = system: CCRF-CEM; test: NCI60 one-dose screen; details: Homo sapiens, 10 μM, one-dose, read-out: Growth percent
[34] = system: SF-268; test: NCI60 one-dose screen; details: Homo sapiens; SF-268, 10 μM, one-dose; read-out: Growth percent
[35] = system: HL-60(TB); test: NCI60 five-dose screen; details: Homo sapiens, HL-60, HL-60(TB), Leukemia; read-out: GI50
[36] = system: KM12; test: NCI60 five-dose screen; details: Homo sapiens, KM12, KM12, Colon Cancer; read-out: GI50
[37] = system: SK-MEL-2; test: NCI60 one-dose screen; details: Homo sapiens; SK-MEL-2, 10 μM, one-dose; read-out: Growth percent
[38] = system: SK-MEL-5; test: NCI60 one-dose screen; details: Homo sapiens; SK-MEL-5, 10 μM, one-dose; read-out: Growth percent
[39] = system: NCI-H522; test: NCI60 five-dose screen; details: Homo sapiens; NCI-H522, Non-small Cell Lung Cancer; read-out: GI50
[40] = system: HCC-2998; test: NCI60 five-dose screen; details: Homo sapiens; HCC-2998, Colon Cancer; read-out: GI50
[41] = system: MALME-3M; test: NCI60 one-dose screen; details: Homo sapiens; MALME-3M, 10 μM, one-dose; read-out: Growth percent
[42] = system: SNB-19; test: NCI60 one-dose screen; details: Homo sapiens; SNB-19, 10 μM, one-dose; read-out: Growth percent
[43] = system: EKVX; test: NCI60 five-dose screen; details: Homo sapiens, Non-small Cell Lung Cancer, read-out: GI50
[44] = system: LOX IMVI; test: NCI60 one-dose screen; details: Homo sapiens, 10 μM, one-dose, read-out: Growth percent
[45] = system: CNS Cancer panel; test: NCI60 five-dose screen, panel mean; details: Homo sapiens; mean over CNS Cancer panel; read-out: GI50 Mean
[46] = system: MDA-MB-468; test: NCI60 five-dose screen; details: Homo sapiens, MDA-MB-468, MDA-MB-468, Breast Cancer; read-out: GI50
[47] = system: RPMI-8226; test: NCI60 five-dose screen; details: Homo sapiens; RPMI-8226, Leukemia; read-out: GI50

For `CC[C@]12C=CCN3CC[C@@]4(c5ccc(OC)cc5N(C)[C@H]4[C@@](O)(C(=O)OC)[C@@H]1OC(=O)CCCC[P+](c1ccc(F)cc1)(c1ccc(F)cc1)c1ccc(F)cc1)[C@@H]32` [10c], the GI50 [1] was 13.6 µM, the GI50 [2] was 16.5 µM and the GI50 [3] was greater than 100 µM. For the same compound, the GI50 [4] was 25.5 µM, the activity at 10 µM [5] was -2.23% and the GI50 [6] was 25.1 µM. It also gave a GI50 [7] greater than 100 µM, a GI50 [8] of 13.5 µM and a GI50 [9] of 12.9 µM. For the same compound, the activity at 10 µM [10] was 53%, the GI50 [11] was 6.32 µM and the activity at 10 µM [12] was 16%. It also gave an activity at 10 µM [13] of 20.3%, a GI50 [14] of 11.5 µM and an activity at 10 µM [15] of -42.8%. For the same compound, the GI50 [16] was 10.8 µM, the GI50 [17] was 30.6 µM and the GI50 [18] was 9.3 µM. It also gave an activity at 10 µM [19] of 103%, an activity at 10 µM [20] of 36.4% and a GI50 [21] of 4.63 µM. It also gave an activity at 10 µM [22] of 17%, an activity at 10 µM [23] of -16% and a GI50 [24] of 17.6 µM. The GI50 [25] was 33.8 µM, the GI50 [26] was 11.1 µM and the activity at 10 µM [27] was 15.9%. For the same compound, the activity at 10 µM [28] was 23.6%, the activity at 10 µM [29] was -43.4% and the GI50 [30] was 10.7 µM. The GI50 [31] was 28.6 µM, the GI50 [32] was 21.2 µM and the activity at 10 µM [33] was 19.9%. It also gave an activity at 10 µM [34] of 28.1%, a GI50 [35] of 2.11 µM and a GI50 [36] of 13.4 µM. The activity at 10 µM [37] was -54%, the activity at 10 µM [38] was -59.6% and the GI50 [39] was 5.44 µM. The GI50 [40] was 12.5 µM, the activity at 10 µM [41] was -55.9% and the activity at 10 µM [42] was 6.61%. It also gave a GI50 [43] of 21 µM, an activity at 10 µM [44] of 25% and a GI50 [45] of 18.8 µM. The GI50 [46] was 2.61 µM and the GI50 [47] was 2.97 µM.
